# Where no end group is shown, it is not given here.
# Tested on: kidney homogenates of uni-nephrectomized FHH rats
# Experiment: Intrarenal Ang peptide content by parallel reaction monitoring (LC/MS/MS), late disease protocol
# Assay type: in vivo, rat
# Conditions: kidneys harvested at sacrifice, late disease model; chronic iv infusion 100-400 ng/kg/min; whole kidney homogenate; LC-MS/MS (PRM)
# Method: Stable isotope labeled peptide standards (SIS, ^13C ^15N, New England Peptide, Gardner, MA) were resuspended in water to 1 nM and stored at −80C in Lo-Bind microcentrifuge tubes (Eppendorf) with the exception of Ang-I, which was resuspended in 30% acetonitrile and stored at 0.4 nM final concentration. Ang-(1-7), Ang-II, and Ang-(2-10) contained isotopically labeled valine. Ang-I contained isotopically labeled valine and proline. Peptide concentration was determined by amino acid analysis.
# Tissues were stored frozen at −80°C in 15 ml Falcon tubes. Whole kidney tissues were submerged in liquid nitrogen for 5 minutes and kidney tissue was processed in a biopulverizer (MidSci, St. Louis, MO) to a fine powder. Pulverized tissue was transferred to a 5-ml glass dounce with a chilled spatula. Approximately 200 mg of tissue was used for peptide extraction. Four volumes of ice cold methanol (Burdick and Jackson, LC-MS Grade) were added to the tissue followed by a volume of water (Burdick and Jackson, LC-MS Grade) containing O-phenanthroline (Sigma Aldrich) and SIS peptides resulting in a final concentration of 1 mM and 1.8 nM, respectively. Tissue was homogenized in the dounce on ice for 1 minute. An aliquot of tissue homogenate was transferred to a 2-ml lo-bind microcentrifuge tube and stored at −20°C for at least 1 hour. Samples were further centrifuged for 10 minutes at 10,000×g at 4°C. An aliquot equal to approximately 60% of the total sample volume was transferred to a lo-bind tube equivalent to 100 mg of tissue (wet weight). From this aliquot, a volume equal to the wet weight of the starting tissue was transferred to a new lo-bind tube and diluted with ice cold water so that the final concentration of methanol was 40%. […] The filtrate volume was estimated by variable volume pipet and recorded to determine the fraction of starting volume collected. […] Declustering potential was set at 80 V. For parallel reaction monitoring (PRM) quantification, the dominant charge state of each peptide was determined and collision energies were optimized manually for SIS peptides (Table 1). […]
sequence,measurement,value
RVYIHPFHL [Ang-(2-10)],intrarenal level of the exogenously administered peptide (in words),did not lead to a significant increase
